Measurements reported in US20120302573A1, “METHODS OF INHIBITING PRO MATRIX METALLOPROTEINASE ACTIVATION” (priority 2011, published 2012).

Tests used:
[1] = system: rats with SCW-induced arthritis; assay: Efficacy in rats with SCW-induced arthritis (ankle thickness, clinical score); format: in vivo, rat
Description: To induce arthritis, Female Lewis (LEW/N) rats, 5-6 weeks of age (80-100 g) were injected (i.p.) with SCW PG-PS as described above. Eighteen days later, arthritis was well established. Calipers were used to measure the width (anterior to posterior surface) of the left and right hind ankles of each rat. Each ankle was measured 3 times and averaged, and treatment groups were randomized based on ankle thickness (Table 7). Commencing on day 18, randomized groups of arthritic rats (n=5 rats/group) received vehicle or 5, 20, or 50 mg/kg Compound α BID by oral gavage. Vehicle consisted of an aqueous mixture containing 2% (v:v) N-methylpyrrolidone, 5% (v:v) glycerine, and 20% (w:v) captisol. Treatment continued daily through the morning of day 26.
By day 18 mean ankle thickness was increased an average of >4.4 mm compared to disease free rats. Rats treated with vehicle alone continued to gradually develop a more severe arthritis based on ankle thickness measurements over the eight-day treatment period (Table 7). […] By day 26, the disease associated increase in ankle thickness had been reduced 27, 37, and 46 percent by 5, 20, and 50 mg/kg Compound α, respectively.
Hind paw inflammation clinical scores were assigned based on swelling and erythema.

proMMP9 = target: T1, proMMP9 (Homo sapiens, UniProt P14780); assay: Activation of proMMP9 by human fetal lung fibroblast (HFL-1) cultures (Western blot); format: cell-based; details: 3.3 μM, 72 hrs, mAb-L51/82
T1 construct: host or cells: HFL-1
T1 sequence (P14780 20-707 limits assumed): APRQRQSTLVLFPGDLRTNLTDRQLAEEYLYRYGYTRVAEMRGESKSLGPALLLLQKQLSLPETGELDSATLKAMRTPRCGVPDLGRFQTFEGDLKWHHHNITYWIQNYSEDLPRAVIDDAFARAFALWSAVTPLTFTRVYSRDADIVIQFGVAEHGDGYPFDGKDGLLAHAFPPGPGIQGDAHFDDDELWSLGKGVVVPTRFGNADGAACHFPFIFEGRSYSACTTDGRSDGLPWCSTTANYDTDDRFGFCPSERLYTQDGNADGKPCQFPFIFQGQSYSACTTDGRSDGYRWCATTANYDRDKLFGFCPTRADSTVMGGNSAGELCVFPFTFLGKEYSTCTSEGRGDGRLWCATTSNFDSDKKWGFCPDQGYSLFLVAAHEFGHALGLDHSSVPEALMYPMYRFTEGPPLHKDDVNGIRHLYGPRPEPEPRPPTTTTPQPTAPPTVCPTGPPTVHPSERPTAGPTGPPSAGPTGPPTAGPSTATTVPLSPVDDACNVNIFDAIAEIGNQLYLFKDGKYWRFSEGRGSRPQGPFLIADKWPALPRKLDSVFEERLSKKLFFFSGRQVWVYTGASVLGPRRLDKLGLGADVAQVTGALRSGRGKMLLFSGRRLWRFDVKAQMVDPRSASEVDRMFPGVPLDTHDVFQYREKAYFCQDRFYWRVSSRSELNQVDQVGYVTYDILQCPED
Description: Compound α was assessed additionally for ability to block the maturation of proMMP9 to active MMP9 in cultures of human fetal lung fibroblasts (HFL-1, American Type Culture Collection #CCL-153). Unlike rat synoviocytes, HFL-1 cells were unable to process proMMP9 to the active form without addition of neutrophil elastase. […] Rather, the function of elastase in this assay may be to inactivate tissue inhibitors of matrix metalloproteinases (TIMPs) that repress endogenous pathways of MMP9 activation (Am J Respir Crit Care Med; 1999; 159:1138-46).
HLF-1 were maintained in monolayer culture in DMEM with 10% FCS and were used between passage numbers 5-15. HLF-1 were embedded in collagen gels as described for rat SCW synoviocytes (vida supra). […] The plates were cultured an additional 72 hrs, at which time MMP9 secreted into the conditioned media was bound to gelatin-sepharose and evaluated by Western blot analysis as described for the rat synoviocyte cultures (vida supra). mAb-51/82 detected three forms of MMP9 in HFL-1 cultures. […]
A second experiment was performed to determine if the 80 kD form was mature active MMP9 and to determine the potency of Compound α as an inhibitor of MMP9 maturation in this assay. […] In the absence of Compound α, pAb-1246 readily detected MMP9 with an electrophoretic mobility of approximately 80 kD. […]

`Cc1nc(C)c(-c2csc(Nc3cc(S(N)(=O)=O)ccc3OC(C)C)n2)s1` [Compound α, 3-(2′,4′-Dimethyl-[4,5′]bithiazolyl-2-ylamino)-4-isopropoxy-benzenesulfonamide.HBr] was tested, and the “Day 26 % Inh of disease associated increase in ankle thickness” value ([1]; 5 mg/kg BID oral) was 27%, the “Day 26 % Inh of disease associated increase in ankle thickness” value ([1]; 20 mg/kg BID oral) was 37% and the “Day 26 % Inh of disease associated increase in ankle thickness” value ([1]; 50 mg/kg BID oral) was 46%. For the same compound, the “Signal Total” value (proMMP9) was 91346 INT*mm^2.
